Data published in PubChem BioAssay AID1259407 (Chemical Carcinogenesis Research Information System (CCRIS), 2018).
Activity calls are given as the source filed them. The rule behind the calls is not given here.

Tested on: CCRIS mutagenicity, Ames/micronucleus/aberration tests
Test: CCRIS mutagenicity studies
[1] = Test System: AMES SALMONELLA TYPHIMURIUM, Strain/Indicator: TA97, Metabolic Activation: HAMSTER, LIVER, S-9, AROCLOR 1254 (10 OR 30%), Method: PREINCUBATION
[2] = Test System: AMES SALMONELLA TYPHIMURIUM, Strain/Indicator: TA97, Metabolic Activation: NONE, Method: PREINCUBATION
[3] = Test System: AMES SALMONELLA TYPHIMURIUM, Strain/Indicator: TA97, Metabolic Activation: RAT, LIVER, S-9, AROCLOR 1254 (10 OR 30%), Method: PREINCUBATION
[4] = Test System: AMES SALMONELLA TYPHIMURIUM, Strain/Indicator: TA98, Metabolic Activation: HAMSTER, LIVER, S-9, AROCLOR 1254 (10 OR 30%), Method: PREINCUBATION
[5] = Test System: AMES SALMONELLA TYPHIMURIUM, Strain/Indicator: TA98, Metabolic Activation: NONE, Method: PREINCUBATION
[6] = Test System: AMES SALMONELLA TYPHIMURIUM, Strain/Indicator: TA98, Metabolic Activation: RAT, LIVER, S-9, AROCLOR 1254 (10 OR 30%), Method: PREINCUBATION
[7] = Test System: AMES SALMONELLA TYPHIMURIUM, Strain/Indicator: TA100, Metabolic Activation: HAMSTER, LIVER, S-9, AROCLOR 1254 (10 OR 30%), Method: PREINCUBATION
[8] = Test System: AMES SALMONELLA TYPHIMURIUM, Strain/Indicator: TA100, Metabolic Activation: NONE, Method: PREINCUBATION
[9] = Test System: AMES SALMONELLA TYPHIMURIUM, Strain/Indicator: TA100, Metabolic Activation: RAT, LIVER, S-9, AROCLOR 1254 (10 OR 30%), Method: PREINCUBATION
[10] = Test System: AMES SALMONELLA TYPHIMURIUM, Strain/Indicator: TA1535, Metabolic Activation: HAMSTER, LIVER, S-9, AROCLOR 1254 (10 OR 30%), Method: PREINCUBATION
[11] = Test System: AMES SALMONELLA TYPHIMURIUM, Strain/Indicator: TA1535, Metabolic Activation: NONE, Method: PREINCUBATION
[12] = Test System: AMES SALMONELLA TYPHIMURIUM, Strain/Indicator: TA1535, Metabolic Activation: RAT, LIVER, S-9, AROCLOR 1254 (10 OR 30%), Method: PREINCUBATION
[13] = Test System: AMES SALMONELLA TYPHIMURIUM, Strain/Indicator: TA100, Metabolic Activation: RAT, LIVER, S-9, AROCLOR 1254, Method: STANDARD PLATE

Measured: mutagenic call

CCCCCCCCCC
inactive: [1] inactive; negative | [2] inactive; negative | Test System: AMES SALMONELLA TYPHIMURIUM, Strain/Indicator: TA97, Metabolic Activation: RAT, LIVER, S-9, AROCLOR 1254 (5%), Method: PREINCUBATION inactive; negative | [3] inactive; negative | [4] inactive; negative | [5] inactive; negative | [6] inactive; negative | [7] inactive; negative | [8] inactive; negative | [9] inactive; negative | [10] inactive; negative | [11] inactive; negative | [12] inactive; negative | Test System: AMES SALMONELLA TYPHIMURIUM, Strain/Indicator: TA1537, Metabolic Activation: HAMSTER, LIVER, S-9, AROCLOR 1254 (30%), Method: PREINCUBATION inactive; negative | Test System: AMES SALMONELLA TYPHIMURIUM, Strain/Indicator: TA1537, Metabolic Activation: NONE, Method: PREINCUBATION inactive; negative | Test System: AMES SALMONELLA TYPHIMURIUM, Strain/Indicator: TA1537, Metabolic Activation: RAT, LIVER, S-9, AROCLOR 1254 (5 OR 10%), Method: PREINCUBATION inactive; negative | Test System: AMES SALMONELLA TYPHIMURIUM, Strain/Indicator: TA1537, Metabolic Activation: RAT, LIVER, S-9, AROCLOR 1254 (30%), Method: PREINCUBATION inactive; negative

CC(=O)OCCN(CCC#N)c1ccc(N=Nc2ccc([N+](=O)[O-])cc2)cc1
inactive: End Point: IN VITRO CHROMOSOMAL ABERRATIONS, Test System: CHL CELLS, Metabolic Activation: RAT, LIVER, S-9, SODIUM PHENOBARBITAL AND 5,6-BENZOFLAVONE inactive; negative

CC(C)C(C)(C)C(C)(C)C(C)(C)S
inactive: Test System: AMES SALMONELLA TYPHIMURIUM, Strain/Indicator: TA97, Metabolic Activation: HAMSTER, LIVER, S-9, AROCLOR 1254 (10%), Method: PREINCUBATION inactive; negative | [1] inactive; negative | Test System: AMES SALMONELLA TYPHIMURIUM, Strain/Indicator: TA97, Metabolic Activation: HAMSTER, LIVER, S-9, AROCLOR 1254 (30%), Method: PREINCUBATION inactive; negative | [2] inactive; negative | [3] inactive; negative | [4] inactive; negative | [5] inactive; negative | [6] inactive; negative | [7] inactive; negative | [8] inactive; negative | [9] inactive; negative | [10] inactive; negative | [11] inactive; negative | [12] inactive; negative

CCC(=O)Nc1ccc(Cl)c(Cl)c1
inactive: Test System: AMES SALMONELLA TYPHIMURIUM, Strain/Indicator: TA97, Metabolic Activation: NONE, Method: STANDARD PLATE inactive; negative | Test System: AMES SALMONELLA TYPHIMURIUM, Strain/Indicator: TA97, Metabolic Activation: RAT, LIVER, S-9, AROCLOR 1254, Method: STANDARD PLATE inactive; negative | Test System: AMES SALMONELLA TYPHIMURIUM, Strain/Indicator: TA98, Metabolic Activation: NONE, Method: STANDARD PLATE inactive; negative | Test System: AMES SALMONELLA TYPHIMURIUM, Strain/Indicator: TA98, Metabolic Activation: RAT, LIVER, S-9, AROCLOR 1254, Method: STANDARD PLATE inactive; negative | Test System: AMES SALMONELLA TYPHIMURIUM, Strain/Indicator: TA100, Metabolic Activation: NONE, Method: STANDARD PLATE inactive; negative | [13] inactive; negative | Test System: AMES SALMONELLA TYPHIMURIUM, Strain/Indicator: TA104, Metabolic Activation: NONE, Method: STANDARD PLATE inactive; negative | Test System: AMES SALMONELLA TYPHIMURIUM, Strain/Indicator: TA104, Metabolic Activation: RAT, LIVER, S-9, AROCLOR 1254, Method: STANDARD PLATE inactive; negative | Test System: CHINESE HAMSTER OVARY, Strain/Indicator: CHO-K1-BH4 (HGPRT), Metabolic Activation: NONE inactive; negative | Test System: CHINESE HAMSTER OVARY, Strain/Indicator: CHO-K1-BH4 (HGPRT), Metabolic Activation: RAT, LIVER, S-9, AROCLOR 1254 inactive; negative

O=C1CCc2ccc3ccc4ccccc4c3c21
inactive: [13] inactive; negative
